Measured values: the supplement of paper PMC8671470

Key:
Conditions in all cases: 72 h
[1] = test system: MV4-11
Outline: (§1)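 Fifteen myeloid leukaemia cell lines were seeded in RPMI 1640 at densities titrated to the linear growth range and placed in 384-well plates with acoustically pre-printed compounds at five tenfold doses from 1 to 10,000 nM, in duplicate. After 72 h at 37 °C with 5% CO2, luminescent ATP viability was normalised to vehicle and to a positive control at 10 µM, and curves were fitted with a four-parameter log-logistic model. The IC50 was obtained from these fits.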

[2] = test system: Mono-Mac-6
Outline: as §1

[3] = test system: BV-173
Outline: as §1

[4] = test system: HEL
Outline: as §1

[5] = test system: K-562
Outline: as §1

[6] = test system: KU-812
Outline: as §1

[7] = test system: KCL-22
Outline: as §1

[8] = test system: LAMA-84
Outline: as §1

[9] = test system: MOLM-13
Outline: as §1

[10] = test system: SHI-1
Outline: as §1

[11] = test system: ML-2
Outline: as §1

[12] = test system: THP-1
Outline: as §1

[13] = test system: HL-60
Outline: as §1

[14] = test system: KG-1
Outline: as §1

[15] = test system: NOMO-1
Outline: as §1

[16] = test system: MV4-11; test: cell viability (% survival relative to DMSO control, bortezomib = 0%); higher = less cytotoxic
Outline: (§2)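 Fifteen myeloid leukaemia cell lines (10 AML, 5 CML) were seeded at a density titrated to the linear growth range into 384-well plates pre-printed with compounds at 1, 10, 100, 1000 or 10000 nM in duplicate. Plates were incubated for 72 h at 37 °C with 5% CO2. Viability was then read by CellTiter-Glo luminescence. Each value is percent survival averaged over the duplicates, with vehicle set to 100% and a 10 µM positive control to 0%.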

[17] = test system: Mono-Mac-6; test: as above
Outline: as §2

[18] = test system: BV-173; test: as above
Outline: as §2

[19] = test system: HEL; test: as above
Outline: as §2

[20] = test system: K-562; test: as above
Outline: as §2

[21] = test system: KU-812; test: as above
Outline: as §2

[22] = test system: KCL-22; test: as above
Outline: as §2

[23] = test system: LAMA-84; test: as above
Outline: as §2

[24] = test system: MOLM-13; test: as above
Outline: as §2

[25] = test system: SHI-1; test: as above
Outline: as §2

[26] = test system: ML-2; test: as above
Outline: as §2

[27] = test system: THP-1; test: as above
Outline: as §2

[28] = test system: HL-60; test: as above
Outline: as §2

[29] = test system: KG-1; test: as above
Outline: as §2

[30] = test system: NOMO-1; test: as above
Outline: as §2

CC(C)(CCCCCCCCCCC(C)(C)CC(=O)O)CC(=O)O [MEDICA 16]
Conditions | IC50 (cell viability) [µM]
[1] | > 10
[2] | > 10
[3] | > 10
[4] | > 10
[5] | > 10
[6] | > 10
[7] | > 10
[8] | > 10
[9] | > 10
[10] | > 10
[11] | > 10
[12] | > 10
[13] | > 10
[14] | > 10
[15] | > 10

cell viability [%]
Conditions | 1 nM | 10 nM | 100 nM | 1000 nM | 10000 nM
[16] | 124 | 105 | 94 | 102 | 116
[17] | 99.8 | 114 | 102 | 102 | 111
[18] | 105 | 89.4 | 98.5 | 94.2 | 106
[19] | 116 | 108 | 95.2 | 110 | 119
[20] | 114 | 108 | 103 | 96.8 | 117
[21] | 106 | 94.2 | 101 | 106 | 97.8
[22] | 119 | 97.4 | 107 | 107 | 98.7
[23] | 110 | 85.8 | 99.3 | 98.6 | 97.8
[24] | 113 | 97.1 | 107 | 79.4 | 96.7
[25] | 121 | 104 | 102 | 98.2 | 90.7
[26] | 104 | 99.4 | 96.3 | 101 | 91.5
[27] | 103 | 94.8 | 97.2 | 96.5 | 99.3
[28] | 109 | 114 | 98 | 116 | 108
[29] | 91.7 | 95.8 | 98.6 | 107 | 99.8
[30] | 100 | 95.3 | 101 | 101 | 103

CNC(=C[N+](=O)[O-])NCCSCc1ccc(CN(C)C)o1 [Ranitidine]
Conditions | IC50 (cell viability) [µM]
[1] | > 10
[2] | > 10
[3] | > 10
[4] | > 10
[5] | > 10
[6] | > 10
[7] | > 10
[8] | > 10
[9] | > 10
[10] | > 10
[11] | > 10
[12] | > 10
[13] | > 10
[14] | > 10
[15] | > 10

cell viability [%]
Conditions | 1 nM | 10 nM | 100 nM | 1000 nM | 10000 nM
[16] | 98.5 | 109 | 108 | 114 | 104
[17] | 94.6 | 96.6 | 115 | 95.6 | 113
[18] | 96.7 | 96.1 | 105 | 96.9 | 108
[19] | 113 | 104 | 107 | 104 | 92.4
[20] | 108 | 92.1 | 93.5 | 97.3 | 103
[21] | 109 | 101 | 97.4 | 96.8 | 107
[22] | 100 | 101 | 103 | 109 | 92.9
[23] | 107 | 89.3 | 105 | 104 | 102
[24] | 97.9 | 94.2 | 91.6 | 102 | 117
[25] | 98.6 | 107 | 96.4 | 122 | 104
[26] | 97.4 | 113 | 101 | 100 | 98.9
[27] | 105 | 103 | 98.2 | 99.6 | 102
[28] | 98.1 | 156 | 97.5 | 95.5 | 121
[29] | 104 | 85.8 | 126 | 174 | 163
[30] | 96.3 | 96.2 | 108 | 98.7 | 101

O=C(C(=O)c1ccc(Br)cc1)c1ccc(Br)cc1 [4,4'-Dibromobenzil]
Conditions | IC50 (cell viability) [µM]
[1] | > 10
[2] | > 10
[3] | > 10
[4] | > 10
[5] | > 10
[6] | > 10
[7] | > 10
[8] | > 10
[9] | > 10
[10] | > 10
[11] | > 10
[12] | > 10
[13] | > 10
[14] | > 10
[15] | > 10

cell viability [%]
Conditions | 1 nM | 10 nM | 100 nM | 1000 nM | 10000 nM
[16] | 101 | 92.1 | 107 | 85.3 | 89.3
[17] | 109 | 101 | 94 | 109 | 97.9
[18] | 104 | 117 | 112 | 105 | 117
[19] | 96.7 | 96.8 | 120 | 114 | 115
[20] | 101 | 90.3 | 114 | 100 | 112
[21] | 86.9 | 98.3 | 104 | 103 | 91.5
[22] | 95.4 | 87.2 | 94.9 | 101 | 95.5
[23] | 98.8 | 101 | 109 | 106 | 96.9
[24] | 87 | 83.8 | 80.4 | 87.5 | 93.8
[25] | 92.4 | 101 | 90 | 103 | 98.4
[26] | 91.7 | 99.9 | 92.3 | 100 | 107
[27] | 98.2 | 103 | 100 | 95 | 97.6
[28] | 91.8 | 99.6 | 93.4 | 98.1 | 88.5
[29] | 95.5 | 98.6 | 101 | 100 | 91
[30] | 95.6 | 110 | 99.8 | 104 | 96.2

CCCC(CCC)C(=O)O [Valproic acid]
Conditions | IC50 (cell viability) [µM]
[1] | > 10
[2] | > 10
[3] | > 10
[4] | > 10
[5] | > 10
[6] | > 10
[7] | > 10
[8] | > 10
[9] | > 10
[10] | > 10
[11] | > 10
[12] | > 10
[13] | > 10
[14] | > 10
[15] | > 10

cell viability [%]
Conditions | 1 nM | 10 nM | 100 nM | 1000 nM | 10000 nM
[16] | 111 | 86.6 | 102 | 96.6 | 97.5
[17] | 96.3 | 98.2 | 98.3 | 105 | 99.1
[18] | 88.5 | 93.5 | 87.8 | 104 | 90.6
[19] | 119 | 103 | 94.5 | 108 | 106
[20] | 107 | 95.7 | 98.6 | 109 | 112
[21] | 95.6 | 86.5 | 92.6 | 99.5 | 97.2
[22] | 108 | 94.1 | 96.2 | 127 | 95.5
[23] | 106 | 91.7 | 96.2 | 102 | 106
[24] | 105 | 100 | 100 | 76 | 105
[25] | 106 | 94.8 | 95.9 | 92.5 | 101
[26] | 106 | 95.6 | 93 | 99.3 | 91.5
[27] | 104 | 93.2 | 93.7 | 102 | 91.2
[28] | 87.3 | 96.2 | 99.2 | 87.9 | 103
[29] | 90.2 | 98.7 | 93 | 90.4 | 108
[30] | 93.8 | 93.6 | 94.6 | 98.5 | 104

CC(=O)N1CCN(c2ccc(OC[C@@H]3CO[C@@](Cn4ccnc4)(c4ccc(Cl)cc4Cl)O3)cc2)CC1 (racemic) [Ketoconazole]
Conditions | IC50 (cell viability) [µM]
[1] | > 10
[2] | > 10
[3] | > 10
[4] | > 10
[5] | > 10
[6] | > 10
[7] | 8.91
[8] | > 10
[9] | > 10
[10] | > 10
[11] | > 10
[12] | > 10
[13] | > 10
[14] | 8.35
[15] | > 10

cell viability [%]
Conditions | 1 nM | 10 nM | 100 nM | 1000 nM | 10000 nM
[16] | 92.5 | 94.3 | 102 | 98.2 | 54.7
[17] | 93.6 | 91.8 | 95.6 | 94 | 90.1
[18] | 90.8 | 78.3 | 100 | 92.6 | 78.8
[19] | 104 | 105 | 94.1 | 112 | 67.2
[20] | 98.6 | 95.2 | 97.3 | 91.8 | 95.8
[21] | 100 | 102 | 95.1 | 105 | 70.5
[22] | 98.4 | 117 | 101 | 103 | 44.1
[23] | 104 | 97.9 | 96.3 | 96.7 | 82.6
[24] | 92.5 | 110 | 100 | 104 | 88.1
[25] | 104 | 113 | 96.3 | 114 | 97.5
[26] | 97.8 | 113 | 90.8 | 101 | 69.9
[27] | 105 | 95.9 | 97.4 | 104 | 91.1
[28] | 104 | 109 | 97.8 | 112 | 75.5
[29] | 97.5 | 105 | 90.9 | 93.7 | 42.9
[30] | 102 | 95.5 | 100 | 99.8 | 99.5
